Source: patent US20220079924A1, “GLUCOCORTICOID RECEPTOR MODULATORS” (ORIC Pharmaceuticals, Inc., priority 2018, published 2022)

Biological target: T1, GR (Homo sapiens, UniProt P04150)
T1 construct: expressed in transfected cells; host or cells: CHO-K1 (CHO-K1-GR-MMTV-Luc reporter cells)
T1 sequence (P04150 1-777): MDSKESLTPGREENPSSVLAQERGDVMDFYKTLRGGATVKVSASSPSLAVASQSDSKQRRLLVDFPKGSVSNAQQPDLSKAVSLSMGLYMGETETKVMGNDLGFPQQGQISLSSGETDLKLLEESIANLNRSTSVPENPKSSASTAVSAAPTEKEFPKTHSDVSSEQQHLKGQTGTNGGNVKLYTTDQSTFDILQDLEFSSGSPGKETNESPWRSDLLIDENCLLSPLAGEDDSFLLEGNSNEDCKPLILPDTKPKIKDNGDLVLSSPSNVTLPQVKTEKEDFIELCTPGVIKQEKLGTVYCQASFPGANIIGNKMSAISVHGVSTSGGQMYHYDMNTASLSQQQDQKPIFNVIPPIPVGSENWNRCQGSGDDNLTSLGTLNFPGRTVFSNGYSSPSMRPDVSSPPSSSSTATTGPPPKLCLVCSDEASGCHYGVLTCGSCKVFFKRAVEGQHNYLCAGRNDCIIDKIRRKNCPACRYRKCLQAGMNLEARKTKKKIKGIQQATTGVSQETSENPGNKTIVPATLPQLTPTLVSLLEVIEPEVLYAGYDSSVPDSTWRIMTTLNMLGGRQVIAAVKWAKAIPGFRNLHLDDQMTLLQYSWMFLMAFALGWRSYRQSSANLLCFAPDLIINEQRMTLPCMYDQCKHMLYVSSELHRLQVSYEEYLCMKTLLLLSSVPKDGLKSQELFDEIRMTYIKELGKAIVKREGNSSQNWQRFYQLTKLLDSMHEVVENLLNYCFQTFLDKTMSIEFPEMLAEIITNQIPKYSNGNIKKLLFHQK
Experiment: In Vitro GR Luciferase Reporter Assay (antagonist assay)
Assay type: cell-based
Conditions: CHO-K1-GR-MMTV-Luc reporter cells, 10 nM Dexamethasone, 18-24 hours
Method: Example A: In Vitro GR Luciferase Reporter Assay
Cell Line: CHO-K1-GR-MMTV-Luc reporter cells
Culture Media: DMEM (with phenol red)+10% FBS
Assay Media: DMEM (without phenol red)+10% CSS
Culture CHO-K1-GR-MMTV-Luc reporter cells in T175 flasks in Culture Media at conditions less than 90% confluence.
Using Bravo (Agilent) liquid handler:
200× DMSO 1:3 serial dilutions of control and test compounds in 96-well non-sterile V bottom plate in DMSO, 12 points for each compound were prepared.
Prepared 5× compound serial dilutions: Add 97.5 μL/well of Assay Media into 96-well non-sterile V bottom plate then added 2.5 ul of 200× concentration of compounds and mix well.
Seeded cells for Antagonist Assay: 5200 CHO-K1-GR-MMTV-Luc reporter cells were seeded in Greiner #781080 flat clear bottom 384-well white TC plate in 20 ul of Assay Media containing 12.5 nM Dexamethasone (final concentration=10 nM).
Added compounds: 5 μl of 5× compounds were added to appropriate wells and followed with a quick spin (1000 rpm, 10 sec) to bring media and cells to the bottom of plate. The plates were covered with SealMate film to avoid evaporation and placed in 37° C. incubator for approximately 18-24 hours.
Read plates: Equilibrate appropriate amount of Promega OneGlo luciferase reagent to room temperature. Remove the plates from incubator and add 25 uL of OneGlo reagent/well by Bravo and read the plates on Tecan Spark plate reader within 15 minutes.
The ability of the compounds disclosed herein to inhibit GR activity was quantified and the respective IC50 value was determined. Table 1 provides the cellular IC50 values of compounds disclosed herein.

IC50 | Compound
≤ 100 nM | O=C(c1cc(F)ccn1)[C@]12Cc3cnn(-c4ccc(F)nc4)c3C=C1CC[C@H](N(C1CC1)S(=O)(=O)c1ccc(F)cc1)C2 [Example 27]
≤ 100 nM | O=C(c1cc(Cl)ccn1)[C@]12Cc3cnn(-c4ccc(F)cc4)c3C=C1CC[C@H](N(CC(F)F)S(=O)(=O)c1ccc(F)cc1)C2 [Example 28]
≤ 100 nM | Cn1cc(S(=O)(=O)N(CCF)[C@H]2CCC3=Cc4c(cnn4-c4ccc(F)cc4)C[C@]3(C(=O)c3cc(Cl)ccn3)C2)cn1 [Example 29]
≤ 100 nM | Cn1cnc(S(=O)(=O)N(CC(F)F)[C@H]2CCC3=Cc4c(cnn4-c4ccc(F)cc4)C[C@]3(C(=O)c3cc(F)ccn3)C2)n1 [Example 30]
≤ 100 nM | Cn1cnc(S(=O)(=O)N(CC(F)F)[C@H]2CCC3=Cc4c(cnn4-c4ccc(F)cc4)C[C@]3(C(=O)c3cc(Cl)ccn3)C2)n1 [Example 31]
≤ 100 nM | Cn1cc(S(=O)(=O)N(CCF)[C@H]2CCC3=Cc4c(cnn4-c4ccc(F)cc4)C[C@]3(C(=O)c3cc(C(F)(F)F)ccn3)C2)cn1 [Example 32]
≤ 100 nM | Cn1cnc(S(=O)(=O)N([C@H]2CCOC2)[C@H]2CCC3=Cc4c(cnn4-c4ccc(F)cc4)C[C@]3(C(=O)c3cc(C(F)(F)F)ccn3)C2)n1 [Example 33]
≤ 100 nM | O=C(c1cc(F)ccn1)[C@]12Cc3cnn(-c4ccc(F)cc4)c3C=C1CC[C@H](N(CC(F)(F)F)S(=O)(=O)c1ccc(F)cc1)C2 [Example 34]
≤ 100 nM | C[C@H]([C@H]1CCC2=Cc3c(cnn3-c3ccc(F)cc3)C[C@]2(C(=O)c2ccc(C(F)(F)F)cn2)C1)S(=O)(=O)c1cnn(C)c1 [Example 35]
≤ 100 nM | C[C@@H]([C@H]1CCC2=Cc3c(cnn3-c3ccc(F)cc3)C[C@]2(C(=O)c2ccc(C(F)(F)F)cn2)C1)S(=O)(=O)c1cnn(C)c1 [Example 36]
≤ 100 nM | Cn1cc(S(=O)(=O)N(CC(F)F)[C@H]2CCC3=Cc4c(cnn4-c4ccc(F)cc4)C[C@]3(C(=O)c3cc(C(F)(F)F)ccn3)C2)cn1 [Example 37]
≤ 100 nM | CC(C)N([C@H]1CCC2=Cc3c(cnn3-c3ccc(F)nc3)C[C@]2(C(=O)c2ncc(C(F)(F)F)s2)C1)S(=O)(=O)c1ncn(C)n1 [Example 38]
≤ 100 nM | Cn1cc(S(=O)(=O)N(C2CC2)[C@H]2CCC3=Cc4c(cnn4-c4ccnc(F)c4)C[C@]3(C(=O)c3cc(C(F)(F)F)ccn3)C2)cn1 [Example 39]
≤ 100 nM | Cn1cnc(S(=O)(=O)N(C2CC2)[C@H]2CCC3=Cc4c(cnn4-c4ccnc(F)c4)C[C@]3(C(=O)c3cc(C(F)(F)F)ccn3)C2)n1 [Example 40]
≤ 100 nM | Cn1cnc(S(=O)(=O)N(CC(F)(F)F)[C@H]2CCC3=Cc4c(cnn4-c4ccc(F)cc4)C[C@]3(C(=O)c3cc(Cl)ccn3)C2)n1 [Example 41]
100 to 1000 nM | Cn1cnc(S(=O)(=O)N([C@H]2CCC3=Cc4c(cnn4-c4ccc(F)cc4)C[C@]3(C(=O)c3cc(C(F)(F)F)ccn3)C2)[C@H]2C[C@](O)(C(F)(F)F)C2)n1 [Example 42]
100 to 1000 nM | Cn1cnc(S(=O)(=O)N([C@H]2CCC3=Cc4c(cnn4-c4ccc(F)cc4)C[C@]3(C(=O)c3cc(F)ccn3)C2)[C@H]2C[C@](O)(C(F)(F)F)C2)n1 [Example 43]
≤ 100 nM | Cn1cnc(S(=O)(=O)N([C@H]2CCC3=Cc4c(cnn4-c4ccc(F)cc4)C[C@]3(C(=O)c3cc(Cl)ccn3)C2)[C@H]2C[C@](O)(C(F)(F)F)C2)n1 [Example 44]
≤ 100 nM | Cn1cnc(S(=O)(=O)N([C@H]2CCC3=Cc4c(cnn4-c4ccc(F)cc4)C[C@]3(C(=O)c3cc(Cl)ccn3)C2)[C@H]2C[C@@](O)(C(F)(F)F)C2)n1 [Example 45]
≤ 100 nM | Cn1cnc(S(=O)(=O)N(C2CC2)[C@H]2CCC3=Cc4c(cnn4-c4ccc(F)cc4)C[C@]3(C(=O)c3ncc(C(C)(C)C)s3)C2)n1 [Example 46]
≤ 100 nM | Cn1ccc(S(=O)(=O)N(C2CC2)[C@H]2CCC3=Cc4c(cnn4-c4ccc(F)cc4)C[C@]3(C(=O)c3cc(C(F)(F)F)ccn3)C2)c1 [Example 47]

IC50 | Compound
≤ 100 nM | Cn1cnc(S(=O)(=O)N(C2CC2)[C@H]2CCC3=Cc4c(cnn4-c4ccc(F)nc4)C[C@]3(C(=O)c3cc(F)ccn3)C2)n1 [Example 48]
≤ 100 nM | CCN([C@H]1CCC2=Cc3c(cnn3-c3ccc(F)nc3)C[C@]2(C(=O)c2cc(C(F)(F)F)ccn2)C1)S(=O)(=O)c1ncn(C)n1 [Example 49]
≤ 100 nM | CCN([C@H]1CCC2=Cc3c(cnn3-c3ccc(F)nc3)C[C@]2(C(=O)c2cc(Cl)ccn2)C1)S(=O)(=O)c1ncn(C)n1 [Example 50]
≤ 100 nM | CC(C)N([C@H]1CCC2=Cc3c(cnn3-c3ccc(F)nc3)C[C@]2(C(=O)c2cc(C(F)(F)F)ccn2)C1)S(=O)(=O)c1ncn(C)n1 [Example 51]
≤ 100 nM | CC(C)N([C@H]1CCC2=Cc3c(cnn3-c3ccc(F)nc3)C[C@]2(C(=O)c2cc(Cl)ccn2)C1)S(=O)(=O)c1ncn(C)n1 [Example 52]
≤ 100 nM | O=C(c1cc(Cl)ccn1)[C@]12Cc3cnn(-c4ccc(F)cc4)c3C=C1CC[C@H](N(CC(F)(F)F)S(=O)(=O)c1ccc(F)cc1)C2 [Example 53]
≤ 100 nM | Cn1cc(S(=O)(=O)N(Cc2ncco2)[C@H]2CCC3=Cc4c(cnn4-c4ccc(F)cc4)C[C@]3(C(=O)c3cc(C(F)(F)F)ccn3)C2)cn1 [Example 54]
≤ 100 nM | Cn1cnc(S(=O)(=O)N(C2CC2)[C@H]2CCC3=Cc4c(cnn4-c4ccc(F)cn4)C[C@]3(C(=O)c3cc(C(F)(F)F)ccn3)C2)n1 [Example 55]
≤ 100 nM | C[C@H]([C@H]1CCC2=Cc3c(cnn3-c3ccc(F)cc3)C[C@]2(C(=O)c2ncc(C(F)(F)F)s2)C1)S(=O)(=O)c1ncn(C)n1 [Example 56]
≤ 100 nM | C[C@@H]([C@H]1CCC2=Cc3c(cnn3-c3ccc(F)cc3)C[C@]2(C(=O)c2ncc(C(F)(F)F)s2)C1)S(=O)(=O)c1ncn(C)n1 [Example 57]
≤ 100 nM | Cn1ccc(S(=O)(=O)N(C2CC2)[C@H]2CCC3=Cc4c(cnn4-c4ccc(F)cc4)C[C@]3(C(=O)c3cc(F)ccn3)C2)c1 [Example 58]
≤ 100 nM | C[C@H]([C@H]1CCC2=Cc3c(cnn3-c3ccc(F)cc3)C[C@]2(C(=O)c2ncc(C(C)(C)C)s2)C1)S(=O)(=O)c1cnn(C)c1 [Example 59]
≤ 100 nM | Cn1cc(S(=O)(=O)N(CCOC(F)(F)F)[C@H]2CCC3=Cc4c(cnn4-c4ccc(F)cc4)C[C@]3(C(=O)c3cc(C(F)(F)F)ccn3)C2)cn1 [Example 60]
≤ 100 nM | Cn1cc(S(=O)(=O)N(C2CC2)[C@H]2CCC3=Cc4c(cnn4-c4ccc(F)nc4)C[C@]3(C(=O)c3ncc(C(C)(C)C)s3)C2)cn1 [Example 61]
≤ 100 nM | C[C@H]([C@H]1CCC2=Cc3c(cnn3-c3ccc(F)cc3)C[C@]2(C(=O)c2cc(F)ccn2)C1)S(=O)(=O)c1cnn(C)c1 [Example 62]
≤ 100 nM | CC(C)N([C@H]1CCC2=Cc3c(cnn3-c3ccc(F)cc3)C[C@]2(C(=O)c2ncc(C(C)(C)C)s2)C1)S(=O)(=O)c1cnn(C)c1 [Example 63]
≤ 100 nM | CC(C)N([C@H]1CCC2=Cc3c(cnn3-c3ccc(F)cc3)C[C@]2(C(=O)c2cc(C(C)(C)C)ccn2)C1)S(=O)(=O)c1cnn(C)c1 [Example 64]
≤ 100 nM | Cn1cnc(S(=O)(=O)N(C2CC2)[C@H]2CCC3=Cc4c(cnn4-c4ccc(F)cn4)C[C@]3(C(=O)c3ncc(C(C)(C)C)s3)C2)n1 [Example 65]
≤ 100 nM | CC(C)N([C@H]1CCC2=Cc3c(cnn3-c3ccc(F)nc3)C[C@]2(C(=O)c2cc(F)ccn2)C1)S(=O)(=O)c1ncn(C)n1 [Example 66]
≤ 100 nM | Cn1ccc(S(=O)(=O)N(C2CC2)[C@H]2CCC3=Cc4c(cnn4-c4ccc(F)cc4)C[C@]3(C(=O)c3cc(Cl)ccn3)C2)c1 [Example 67]
≤ 100 nM | CC(C)N([C@H]1CCC2=Cc3c(cnn3-c3ccc(F)nc3)C[C@]2(C(=O)c2cc(F)ccn2)C1)S(=O)(=O)c1cnn(C)c1 [Example 68]
